The source of these data is PMC9823191, “Production, characterization and techno-economic evaluation of Aspergillus fusant L-asparaginase” (AMB Express, 2023).

The assay concerns T1, Fusant-06 L-ASNase.
T1 construct: native extracellular enzyme from fusant fermentation broth; PEG/citrate ATPS then Sephadex G-100; may be recombined from both parents
In words: ammonia release (Imada assay); Lineweaver-Burk plot. Conditions: L-asparagine 0.005–1.28 mM; 5 µg/mL (0.043 µM) enzyme; optimum conditions (pH and temperature not stated for the kinetics). Type of assay: biochemical.

What is called Km is the concentration of substrate that gives half-maximal velocity.

Structures are written as SMILES.

As for `NC(=O)C[C@H](N)C(=O)O` [L-asparagine], the Km was 66.7 µM.
